From PMC9135335, “Structure and kinase activity of bacterial cell cycle regulator CcrZ” (PLoS Genetics, 2022)

Assays:
CcrZ (YtmP) [1] = molecular target: T1, CcrZ (YtmP) (Bacillus subtilis, UniProt C0SPC1); assay: ADP-Glo ATPase assay (proxy for kinase activity); type: biochemical; details: 0.1 mM ATP, 37 °C, 30 min, product not identified
T1 construct: full length, 6xHis-SUMO tag cleaved by SUMO protease, expressed in E. coli; monomer ~30 kDa; selenomethionine derivative for the crystal
T1 sequence (C0SPC1 1-269): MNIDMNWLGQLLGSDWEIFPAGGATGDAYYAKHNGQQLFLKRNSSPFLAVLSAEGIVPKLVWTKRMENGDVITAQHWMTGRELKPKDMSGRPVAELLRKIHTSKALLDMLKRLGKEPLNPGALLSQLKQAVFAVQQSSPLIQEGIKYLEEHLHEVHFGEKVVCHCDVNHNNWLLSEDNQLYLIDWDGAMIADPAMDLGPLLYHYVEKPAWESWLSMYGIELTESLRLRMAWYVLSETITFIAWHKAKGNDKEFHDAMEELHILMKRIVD

CcrZ (YtmP) [2] = molecular target: T1, CcrZ (YtmP); assay: X-ray crystallography, SAD, […] Å; type: binding; details: selenomethionine derivative; pH 5.84, PEG 6000, 1 M LiCl, MgCl2 and D-ribose added but not seen; adenine in ATP pocket, phosphates turned to solvent (non-catalytic pose)
LicA = molecular target: T2, LicA (Streptococcus pneumoniae, UniProt Q8DPI4); assay: ADP-Glo ATPase assay (proxy for kinase activity); type: biochemical; details: 1.25 mM choline, 0.1 mM ATP, 37 °C, 30 min
T2 construct: gene pck; gene codon optimized for B. subtilis, pE-SUMO-kan vector, SUMO tag cleaved, expressed in E. coli BL21
T2 sequence (Q8DPI4 entry or part of it): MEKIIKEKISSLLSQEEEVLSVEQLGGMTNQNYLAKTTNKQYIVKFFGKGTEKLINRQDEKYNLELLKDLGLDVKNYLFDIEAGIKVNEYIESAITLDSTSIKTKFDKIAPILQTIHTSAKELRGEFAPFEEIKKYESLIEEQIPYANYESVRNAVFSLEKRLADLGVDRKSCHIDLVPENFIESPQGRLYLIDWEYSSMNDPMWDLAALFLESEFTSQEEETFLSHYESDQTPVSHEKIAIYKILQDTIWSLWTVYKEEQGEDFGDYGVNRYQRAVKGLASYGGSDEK

OC[C@H]1OC(O)C[C@@H]1O (stereo partly drawn) [2-deoxy-D-ribose]
ADP-Glo ATPase assay (proxy for kinase activity) (CcrZ (YtmP) [1]; 5 mM 2-deoxy-ribose): CcrZ ATPase activity was stimulated in the presence of D-ribose and 2-deoxy-D-ribose

Nc1ncnc2c1ncn2[C@@H]1O[C@H](COP(=O)(O)OP(=O)(O)NP(=O)(O)O)[C@@H](O)[C@H]1O [AMP-PNP]
X-ray crystallography, SAD, 2.6 Å (CcrZ (YtmP) [2]): we solved the crystal structure of B. subtilis CcrZ bound to AMP-PNP

OC1OC[C@@H](O)[C@@H](O)[C@H]1O (stereo partly drawn) [D-ribose]
ADP-Glo ATPase assay (proxy for kinase activity) (CcrZ (YtmP) [1]; 5 mM D-ribose): CcrZ ATPase activity was stimulated in the presence of D-ribose and 2-deoxy-D-ribose

C[N+](C)(C)CCO [choline]
ADP-Glo ATPase assay (proxy for kinase activity) (LicA): CcrZ does not have activity on choline while LicA shows robust activity
